Measured values: ChEMBL document CHEMBL3885881, “DrugMatrix”

Species: Rattus norvegicus
Assay: DrugMatrix - Regimen: Daily Repeat
Format: toxicity, organism-based, Sprague-Dawley
Parameters: regimen Daily Repeat, gender Male, age 6-8 weeks
Conditions: in vivo, po, route oral GAVAGE, vehicle .5 % CMC; for ABSOLUTE BASOPHIL / ABSOLUTE EOSINOPHIL / ABSOLUTE LYMPHOCYTE / ABSOLUTE MONOCYTE / ABSOLUTE SEGMENTED NEUTROPHIL / BASOPHIL / EOSINOPHIL / ERYTHROCYTE COUNT / HEMATOCRIT / HEMOGLOBIN / LEUKOCYTE COUNT / LYMPHOCYTE / MEAN CORPUSCULAR HEMOGLOBIN / MEAN CORPUSCULAR HEMOGLOBIN CONCENTRATION / MEAN CORPUSCULAR VOLUME / MONOCYTE / NEUTROPHIL / NUCLEATED RED BLOOD CELLS / PLATELET COUNT: tissue Blood; for ALANINE AMINOTRANSFERASE / ALBUMIN / ALKALINE PHOSPHATASE / ASPARTATE AMINOTRANSFERASE / BLOOD UREA NITROGEN / CARBON DIOXIDE / CHLORIDE / CHOLESTEROL / CREATINE PHOSPHOKINASE / CREATININE / GLUCOSE / LACTATE DEHYDROGENASE / LIPASE / PHOSPHORUS / POTASSIUM / SODIUM / TOTAL BILIRUBIN / TOTAL PROTEIN / URIC ACID: tissue Plasma
[1] = 0 mg/kg, 72 h, dose level Control, time 3 day
[2] = 0 mg/kg, 120 h, dose level Control, time 5 day
[3] = 385.5 mg/kg, 72 h, dose level Low, time 3 day

With `Cn1c(=O)c2c(ncn2CC(O)CO)n(C)c1=O` (centres undefined) [DYPHYLLINE] the “ABSOLUTE BASOPHIL” value [1] was 0 CELLS/uL, the “ABSOLUTE EOSINOPHIL” value [1] was 32.5 CELLS/uL and the “ABSOLUTE LYMPHOCYTE” value [1] was 13494.17 CELLS/uL. The “ABSOLUTE MONOCYTE” value [1] was 474 CELLS/uL, the “ABSOLUTE SEGMENTED NEUTROPHIL” value [1] was 1932.67 CELLS/uL and the BASOPHIL [1] was 0%. For the same compound, the EOSINOPHIL [1] was 0.17%, the “ERYTHROCYTE COUNT” value [1] was 5.45 x10E6/uL and the HEMATOCRIT [1] was 34.32%. The HEMOGLOBIN [1] was 13.82 G/DL, the “LEUKOCYTE COUNT” value [1] was 15.93 x10E3/uL and the LYMPHOCYTE [1] was 84.83%. The “MEAN CORPUSCULAR HEMOGLOBIN” value [1] was 25.38 pg, the “MEAN CORPUSCULAR HEMOGLOBIN CONCENTRATION” value [1] was 40.27 G/DL and the “MEAN CORPUSCULAR VOLUME” value [1] was 63.05 fL. The MONOCYTE [1] was 3%, the NEUTROPHIL [1] was 12% and the “NUCLEATED RED BLOOD CELLS” value [1] was 0.67 /100WBC. The “PLATELET COUNT” value [1] was 1188.5 x10E3/uL, the “ALANINE AMINOTRANSFERASE” value [1] was 54.83 u/L and the ALBUMIN [1] was 4.22 G/DL. The “ALKALINE PHOSPHATASE” value [1] was 427.67 u/L, the “ASPARTATE AMINOTRANSFERASE” value [1] was 86.5 u/L and the “BLOOD UREA NITROGEN” value [1] was 15.33 mg/dL. For the same compound, the “CARBON DIOXIDE” value [1] was 24.83 mmol/L, the CHLORIDE [1] was 102.33 MEQ/L and the CHOLESTEROL [1] was 71.67 mg/dL. The “CREATINE PHOSPHOKINASE” value [1] was 442.5 u/L, the CREATININE [1] was 0.19 mg/dL and the GLUCOSE [1] was 160.67 mg/dL. The “LACTATE DEHYDROGENASE” value [1] was 236.5 u/L, the LIPASE [1] was 9 u/L and the PHOSPHORUS [1] was 11.97 mg/dL. For the same compound, the POTASSIUM [1] was 6.2 MEQ/L, the SODIUM [1] was 142.85 MEQ/L and the “TOTAL BILIRUBIN” value [1] was 0.2 mg/dL. For the same compound, the “TOTAL PROTEIN” value [1] was 5.8 G/DL, the “URIC ACID” value [1] was 1.3 mg/dL and the “ABSOLUTE BASOPHIL” value [2] was 0 CELLS/uL. The “ABSOLUTE EOSINOPHIL” value [2] was 114.5 CELLS/uL, the “ABSOLUTE LYMPHOCYTE” value [2] was 14614 CELLS/uL and the “ABSOLUTE MONOCYTE” value [2] was 173 CELLS/uL. For the same compound, the “ABSOLUTE SEGMENTED NEUTROPHIL” value [2] was 1048.5 CELLS/uL, the BASOPHIL [2] was 0% and the EOSINOPHIL [2] was 0.67%. The “ERYTHROCYTE COUNT” value [2] was 5.66 x10E6/uL, the HEMATOCRIT [2] was 35.52% and the HEMOGLOBIN [2] was 14.27 G/DL. For the same compound, the “LEUKOCYTE COUNT” value [2] was 15.95 x10E3/uL, the LYMPHOCYTE [2] was 91.33% and the “MEAN CORPUSCULAR HEMOGLOBIN” value [2] was 25.23 pg. The “MEAN CORPUSCULAR HEMOGLOBIN CONCENTRATION” value [2] was 40.2 G/DL, the “MEAN CORPUSCULAR VOLUME” value [2] was 62.7 fL and the MONOCYTE [2] was 1.17%. The NEUTROPHIL [2] was 6.83%, the “NUCLEATED RED BLOOD CELLS” value [2] was 0.33 /100WBC and the “PLATELET COUNT” value [2] was 1229 x10E3/uL. For the same compound, the “ALANINE AMINOTRANSFERASE” value [2] was 58.67 u/L, the ALBUMIN [2] was 4.32 G/DL and the “ALKALINE PHOSPHATASE” value [2] was 382.5 u/L. The “ASPARTATE AMINOTRANSFERASE” value [2] was 81.67 u/L, the “BLOOD UREA NITROGEN” value [2] was 17.67 mg/dL and the “CARBON DIOXIDE” value [2] was 27.17 mmol/L. The CHLORIDE [2] was 102.33 MEQ/L, the CHOLESTEROL [2] was 63.67 mg/dL and the “CREATINE PHOSPHOKINASE” value [2] was 227.67 u/L. For the same compound, the CREATININE [2] was 0.23 mg/dL, the GLUCOSE [2] was 155.33 mg/dL and the “LACTATE DEHYDROGENASE” value [2] was 146.5 u/L. The LIPASE [2] was 10.67 u/L, the PHOSPHORUS [2] was 11.93 mg/dL and the POTASSIUM [2] was 6.85 MEQ/L. For the same compound, the SODIUM [2] was 143.95 MEQ/L, the “TOTAL BILIRUBIN” value [2] was 0.18 mg/dL and the “TOTAL PROTEIN” value [2] was 6.02 G/DL. For the same compound, the “URIC ACID” value [2] was 1.63 mg/dL, the “ABSOLUTE BASOPHIL” value [3] was 0 CELLS/uL and the “ABSOLUTE EOSINOPHIL” value [3] was 40.67 CELLS/uL. The “ABSOLUTE LYMPHOCYTE” value [3] was 10748 CELLS/uL, the “ABSOLUTE MONOCYTE” value [3] was 461.33 CELLS/uL and the “ABSOLUTE SEGMENTED NEUTROPHIL” value [3] was 1483.33 CELLS/uL. The BASOPHIL [3] was 0%, the EOSINOPHIL [3] was 0.33% and the “ERYTHROCYTE COUNT” value [3] was 5.3 x10E6/uL. For the same compound, the HEMATOCRIT [3] was 33.37%, the HEMOGLOBIN [3] was 13.27 G/DL and the “LEUKOCYTE COUNT” value [3] was 12.73 x10E3/uL. For the same compound, the LYMPHOCYTE [3] was 86%, the “MEAN CORPUSCULAR HEMOGLOBIN” value [3] was 25.13 pg and the “MEAN CORPUSCULAR HEMOGLOBIN CONCENTRATION” value [3] was 39.8 G/DL. For the same compound, the “MEAN CORPUSCULAR VOLUME” value [3] was 63.07 fL, the MONOCYTE [3] was 3% and the NEUTROPHIL [3] was 10.67%. For the same compound, the “NUCLEATED RED BLOOD CELLS” value [3] was 0.33 /100WBC, the “PLATELET COUNT” value [3] was 1358 x10E3/uL and the “ALANINE AMINOTRANSFERASE” value [3] was 42.67 u/L. The ALBUMIN [3] was 4.03 G/DL, the “ALKALINE PHOSPHATASE” value [3] was 400.67 u/L and the “ASPARTATE AMINOTRANSFERASE” value [3] was 72 u/L. The “BLOOD UREA NITROGEN” value [3] was 15.67 mg/dL, the “CARBON DIOXIDE” value [3] was 25.33 mmol/L and the CHLORIDE [3] was 103 MEQ/L. For the same compound, the CHOLESTEROL [3] was 72.33 mg/dL, the “CREATINE PHOSPHOKINASE” value [3] was 199.67 u/L and the CREATININE [3] was 0.14 mg/dL. The GLUCOSE [3] was 152 mg/dL, the “LACTATE DEHYDROGENASE” value [3] was 149.67 u/L and the LIPASE [3] was 9.33 u/L. For the same compound, the PHOSPHORUS [3] was 13 mg/dL, the POTASSIUM [3] was 7.04 MEQ/L and the SODIUM [3] was 144.5 MEQ/L. For the same compound, the “TOTAL BILIRUBIN” value [3] was 0.17 mg/dL, the “TOTAL PROTEIN” value [3] was 5.57 G/DL and the “URIC ACID” value [3] was 1.53 mg/dL.
